Data from patent publication US20250064846A1, “TREATMENT AND PREVENTION OF TRIGEMINAL NEURALGIA” (THE JOHNS HOPKINS UNIVERSITY, priority 2022, published 2025).

Columns and labels:
NRF2 = assay: NRF2/ARE Luciferase Reporter Assay (HEK293 stable cell line); format: cell-based, human; settings: NRF2-dependent luciferase activity, cells treated for 6 hours; read-out: EC50 for stimulating NRF2
Procedure: NRF2/ARE Luciferase Reporter Assay NRF2 activity was monitored with a reporter cell line in which changes in NRF2 activity are coupled to the expression of firefly luciferase (NRF2/ARE Luciferase Reporter HEK293 Stable Cell Line). Luciferase activity was quantified with the Luciferase Assay System as per the manufacturer's instructions. Briefly, cells were plated at 125,000 cells/well in a 24-well plate. The following day, cells were treated with either vehicle or varying doses of sulforaphane, exemestane, or JQ-1 for 6 hours. Cells were then lysed in passive lysis buffer (Promega E1941) supplemented with protease inhibitors (Sigma). Lysates were then cleared at 16,000 g for 15 minutes at 4° C. 15 μL of each lysate was mixed with 5 μL of luciferase assay substrate (Promega). Total light was measured using a luminometer with a 10 second integration time with a delay of 2 seconds. Luciferase measurements were normalized to total protein and reported as normalized to the vehicle condition.

TRPA1 = target: T1, TRPA1 (Homo sapiens, UniProt O75762); assay: Calcium imaging of HEK293 cells transiently expressing WT TRPA1; format: cell-based; settings: for calcium response of cells transfected with the vector backbone alone: 100 μM iodoacetamide, control vector; for calcium response of cells transfected with the vector backbone alone / calcium response of cells expressing WT TRPA1: 1 mM H2O2 or 100 μM 4-HNE; for EC50: concentration-Ca2+ response, HEK-293 cells transfected with WT TRPA1
T1 construct: expressed in transfected cells; host or cells: HEK293
Procedure: (§1) Calcium Imaging and Analysis Calcium imaging and analysis was performed as previously described (See Meixiong, J. et al. Elife 8, (2019)). Briefly, cells were imaged in calcium imaging buffer (CIB; 10 mM HEPES, 1.2 mM NaHCO3, 130 mM NaCl, 3 mM KCl, 2.5 mM CaCl2, 0.6 mM MgCl2, 20 mM glucose, and 20 mM sucrose at pH 7.4 and 290-300 mOsm). To monitor changes in intracellular [Ca^2+]([Ca^2+]i), cells were loaded with either 1 μM Fura 2-AM (HEK293 cells) or 1 μM Fluo 4-AM (trigeminal neurons) for 30 min in the dark at 37° C. in CIB just prior to imaging. With Fura 2-AM, emission at 510 nm was monitored following excitation at both 340 nm and 380 nm. With Fluo 4-AM, emission at 520 nm was monitored following excitation at 488 nm. Cells were identified as positively responding if [Ca^2+]i rose by 15% compared to baseline. Damaged, detached, high-baseline, and motion-activated cells were excluded from analysis.
(§2) HEK293 cells were plated on poly-D-lysine-coated coverslips and transiently transfected with the vector backbone or constructs encoding WT or mutant TRPA1. Unless otherwise noted, cells were imaged for 30 s to establish a baseline before compounds were added. Vehicle was first applied for 30 s, after which 100 μM iodoacetamide, 1 mM H2O2, or 100 μM 4-HNE was applied. CSF from cases and controls was diluted into calcium imaging buffer 1:50 prior to each trial. 50 μM of the non-selective TRP channel inhibitor ruthenium red was applied at the end of every imaging trial.

[1] = target: T2, mutant TRPA1 (Cys621, Cys641, Cys665, Lys721) (Homo sapiens, UniProt O75762, C621S/C641S/C665S); assay: Calcium imaging of HEK293 cells transiently expressing mutant TRPA1; format: cell-based; settings: 100 μM iodoacetamide, 1 mM H2O2 or 100 μM 4-HNE
T2 construct: expressed in transfected cells; host or cells: HEK293
Procedure: as §1, §2
(§3) ROS directly activated TRPA1 by covalently bonding or modifying a network of cysteine and lysine residues within the channel. Extensive work by several groups has pinpointed a collection of key residues in TRPA1, including Cys421, Cys621, Cys641, Cys665, and Lys721. To test which residues among these sense H2O2 and 4-HNE, each was mutated individually and in various combinations (FIGS. 7A and 7B). Triply mutating cysteines Cys621, Cys641, Cys665 to serine rendered TRPA1 insensitive to both iodoacetamide and H2O2 (FIGS. 2D-2E). […] These four residues position TRPA1 as both a key sensor and transducer of oxidative stress.

[2] = system: mutant TRPA1 (Cys621, Cys641, Cys665, Lys721); assay: as above; format: cell-based; settings: 100 μM 4-HNE
Procedure: as §1, §2, §3

[3] = system: constrictive mouse model of trigeminal neuralgia; assay: Cold allodynia (ice-cold acetone) after constriction of the maxillary nerve; format: in vivo; settings: WT mice, vs vehicle
Procedure: (§4) Constriction of the Maxillary Nerve Constriction of the maxillary division of trigeminal nerve was performed as previously described (See Benedetti, A., et al., Biochimica Et Biophysica Acta Bba—Lipids Lipid Metabolism 620, 281-296 (1980) and Vos, B., et al J Neurosci 14, 2708-2723 (1994)). The procedure was performed under direct visualization and control with a surgical microscope. Mice were first anesthetized with ketamine (100 mg/kg, i.p.) and xylazine (12.5 mg/kg, i.p.) and monitored by pinching the skin between the toes with forceps and monitoring for withdrawal. Mice were restrained with adhesive tape to a sterilized polystyrene board. Upon sufficient anesthesia, the scalp was shaved and an anterior to posterior skin incision was made at the midline to expose the nasal and maxillary bones. The maxillary nerve was exposed and carefully dissected free from the surrounding connective tissue. The distal end of the maxillary nerve was then loosely constricted using 8-0 silk sutures as a ligature. The sutures were tied using a slip knot followed by a normal knot, after which any remaining suture was cut free. The incision was then closed with a 4-0 silk suture. In the sham procedure, the left maxillary nerve was exposed but not constricted. Mice were monitored and rehydrated until fully recovered from anesthesia.
(§5) Pharmacologic Treatments Mice were dosed with either sulforaphane (10 mg/kg, i.p.), exemestane (10 mg/kg, i.p.), letrozole (10 mg/kg, i.p.), (+)-JQ-1 (40 mg/kg, i.p.), (−)-JQ-1 (40 mg/kg, i.p.), or ascorbate (100 mg/kg, i.p.) as indicated below. Mice were first dosed daily for two days before surgery and again daily just after behavior testing. For local exemestane treatment, exemestane (5 μL, 25 μg total) was applied directly to the maxillary nerve. Mice received a single dose during surgery. Mice were dosed with AM-0902 (30 mg/kg, p.o.). Mice were treated with AM-0902 were dosed 30 min prior to behavior testing. Mice were dosed with tamoxifen (75 mg/kg, i.p.). Mice were dosed once every 24 hrs over 5 consecutive days. Behavioral and molecular tests were only performed 7 or more days after the final tamoxifen injection.
Cold Allodynia Cold allodynia was assessed in C57BL/6J, TRPA1^+/+, TRPA1^−/−, Keap1(f/f), and Keap1(f/f)/CMV-CreER mice using ice-cold acetone as previously outlined (See Yoon, C., et al., Pain 59, 369-376 (1994)). Animals were placed individually in transparent plastic boxes and allowed to acclimatize to the environment for at least 30 min before testing. After habituation, 20 μl of cold acetone was applied to the ligated vibrissal pad skin surface. Cold allodynia was measured as the average time spent wiping the region in a 60 s period, with a maximum of 5 seconds between bouts of wiping. Allodynia was measured three times with 10 min between intervals. Changes in cold allodynia were considered relative to sham- or vehicle-treated animal controls. Behavior was assessed concomitantly or in a blocked manner with consideration for both genotype and treatment.

[4] = system: constrictive mouse model of trigeminal neuralgia; assay: Mechanical allodynia (Von Frey filament) after constriction of the maxillary nerve; format: in vivo; settings: NRF2−/− mice; AM-0902 30 mg/kg, p.o., 30 min prior to behavior testing
[5] = system: constrictive mouse model of trigeminal neuralgia; assay: as above; format: in vivo; settings: WT mice, vs vehicle
Procedure: as §4, §5
Mechanical Allodynia Mechanical allodynia was assessed in C57BL/6J, TRPA1^+/+, TRPA1^−/−, Keap1(f/f), and Keap1(f/f/CMV-CreER mice using a Von Frey filament as previously outlined (See Benedetti, A., et al., Biochimica Et Biophysica Acta Bba—Lipids Lipid Metabolism 620, 281-296 (1980) and Vos, B., et al J Neurosci 14, 2708-2723 (1994)). Animals were placed individually in transparent plastic boxes and allowed to acclimate to the environment for at least 30 min before testing. After habituation, a 0.04 g force Von Frey filament was used to stimulate the territory innervated by the maxillary nerve, including the vibrissal skin pad. Each mouse's response to the filament was scored from 0-4 on the scale below. Each mouse was scored ten times per day. Changes in mechanical allodynia were considered relative to sham- or vehicle-treated animal controls. Behavior was assessed concomitantly or in a blocked manner with consideration for both genotype and treatment. • 0—no response • 1—non-defensive response to the stimulus (e.g., mouse non-defensively explores filament) • 2—withdrawal response (e.g., mouse turns head away from filament) • 3—escape/attack response (e.g., mouse moves body away from filament and assumes crouching position against the box wall; actively attacks filament by biting and/or grabbing) • 4—asymmetric face grooming (e.g., mouse wipes stimulated facial area in uninterrupted series of at least three face-wash strokes)

[6] = system: constrictive mouse model of trigeminal neuralgia; assay: Cold allodynia (ice-cold acetone) after constriction of the maxillary nerve; format: in vivo; settings: NRF2−/− mice; AM-0902 30 mg/kg, p.o., 30 min prior to behavior testing
[7] = AM-0902 30 mg/kg, p.o., 30 min prior to behavior testing
[8] = i.p. daily for two days before surgery and daily after behavior testing, sulforaphane, exemestane, letrozole 10 mg/kg, JQ-1 40 mg/kg, ascorbate 100 mg/kg

T2 sequence (O75762 whole entry C621S/C641S/C665S): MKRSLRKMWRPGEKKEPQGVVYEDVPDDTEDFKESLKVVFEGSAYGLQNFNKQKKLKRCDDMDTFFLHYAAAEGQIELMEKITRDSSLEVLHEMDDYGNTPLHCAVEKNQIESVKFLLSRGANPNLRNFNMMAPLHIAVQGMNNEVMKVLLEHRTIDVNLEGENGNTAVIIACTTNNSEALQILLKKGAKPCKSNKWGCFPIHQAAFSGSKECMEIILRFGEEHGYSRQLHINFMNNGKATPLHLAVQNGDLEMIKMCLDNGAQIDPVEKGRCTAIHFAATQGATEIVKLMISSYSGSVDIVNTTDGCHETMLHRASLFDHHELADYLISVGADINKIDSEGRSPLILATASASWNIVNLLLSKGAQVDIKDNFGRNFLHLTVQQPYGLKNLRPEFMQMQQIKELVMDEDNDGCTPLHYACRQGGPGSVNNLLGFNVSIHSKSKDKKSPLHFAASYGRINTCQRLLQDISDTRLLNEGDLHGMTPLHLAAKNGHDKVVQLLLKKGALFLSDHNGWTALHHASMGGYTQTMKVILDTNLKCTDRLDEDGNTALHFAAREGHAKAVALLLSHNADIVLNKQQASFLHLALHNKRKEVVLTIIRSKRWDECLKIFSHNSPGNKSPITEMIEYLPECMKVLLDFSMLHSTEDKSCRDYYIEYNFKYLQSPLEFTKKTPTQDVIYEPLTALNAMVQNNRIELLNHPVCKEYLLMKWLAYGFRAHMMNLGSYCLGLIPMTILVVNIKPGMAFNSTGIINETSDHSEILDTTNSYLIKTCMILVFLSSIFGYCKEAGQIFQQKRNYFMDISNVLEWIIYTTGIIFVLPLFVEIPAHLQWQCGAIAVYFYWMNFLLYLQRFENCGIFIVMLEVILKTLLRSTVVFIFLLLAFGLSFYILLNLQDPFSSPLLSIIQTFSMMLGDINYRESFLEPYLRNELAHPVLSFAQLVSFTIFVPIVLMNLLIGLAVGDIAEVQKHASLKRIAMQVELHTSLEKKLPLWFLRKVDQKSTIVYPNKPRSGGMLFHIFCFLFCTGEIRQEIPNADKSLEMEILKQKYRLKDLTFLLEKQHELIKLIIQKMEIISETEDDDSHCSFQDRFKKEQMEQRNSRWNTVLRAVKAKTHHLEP
T1 sequence (O75762 whole entry): as the sequence (O75762 whole entry C621S/C641S/C665S) above, with S621C, S641C, S665C counted along it

Compound | EC50 (NRF2) [µM] | calcium response of cells transfected with the vector backbone alone (TRPA1) | calcium response of cells expressing WT TRPA1 (TRPA1) | EC50 (TRPA1) [µM] | sensitivity of triple mutant TRPA1 (Cys621, Cys641, Cys665 to serine) [1] | also measured
CCCCCC(O)/C=C/C=O (stereo not shown) [4-HNE, 4-hydroxynonenal] | 12 | Neither iodoacetamide, H2O2, nor 4-HNE elicited a calcium response | activated cells expressing TRPA1 | 48 | still activated | sensitivity of triple cysteine mutant TRPA1 after also mutating Lys721 [2]: no longer sensitive
Cn1cnc2ncn(Cc3nc(CCc4ccc(Cl)cc4)no3)c(=O)c21 [AM-0902, 1-({3-(2-(4-chlorophenyl)ethyl]-1,2,4-oxadiazol-5-yl}methyl)-7-methylpurin-6-one] |  |  |  |  |  | cold allodynia [3, 7]: reduced; mechanical allodynia [4]: lowered; mechanical allodynia [5, 7]: reduced; cold allodynia [6]: lowered
OO [H2O2] | 14 | Neither iodoacetamide, H2O2, nor 4-HNE elicited a calcium response | activated cells expressing TRPA1 | 133 | insensitive | 
NC(=O)CI [iodoacetamide] |  | Neither iodoacetamide, H2O2, nor 4-HNE elicited a calcium response |  |  | insensitive | 
N#Cc1ccc(C(c2ccc(C#N)cc2)n2cncn2)cc1 [letrozole] |  |  |  |  |  | cold allodynia (ice-cold acetone) [3, 8]: neither letrozole nor (−)-JQ-1 did; mechanical allodynia (sensitivity to crude touch) [5, 8]: neither letrozole nor (−)-JQ-1 did
